The values below come from patent US12435061B2 (priority 2020, dated 2025).

Values after ≈ are worked out from the molar mass of the structure shown. Values joined by “and” are separate entries in the source; they are usually repeats but may differ in a detail not shown here. Equal values may be shown once.

Data set [1] deals with T1, hTRPV3 (Homo sapiens (Human), UniProt Q8NET8). The experiment in a line: Whole-cell patch clamp, hTRPV3 Phase 1 / Phase 2 currents. The class given is cell-based. A digest of the protocol:
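Whole-cell recordings on induced TRPV3 cells replated on coverslips, held at −40 mV with 400 ms ramps from −120 to +100 mV every 5 s; currents read at −80 and +80 mV. Ringer's external solution; current activated by heating to ≥28 °C or 20 μM 2-APB.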
(Patch clamp records ionic current or voltage across a cell membrane.)

Data set [2] is described as follows: Aqueous solubility assay in Normal Ringer Solution. Conditions: Normal Ringer Solution; for solubility at 40 min: saline or isotonic, kinetic from dmso stock. The method, then:
Following vortex and incubation for a sufficient time (e.g. 40 minutes at room temperature), solutions were filtered, quenched with acetonitrile, and analyzed by Liquid Chromotography. Solubility Limits were determined by comparison to a standard curve.

Data set [3] in a line: Metabolic Stability assay, rat liver microsomes. The class given is in vitro ADME. The following applies: for half-life at 1 μM: read-out: LM T1/2 (min) (rat). A digest of the protocol: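 Test article at 1 μM starting concentration incubated with human or rat liver microsomes at 37 °C, with the reaction started by NADPH regeneration components. Aliquots were quenched in cold acetonitrile/MeOH/H2O at 0, 7, 15, 30 and 60 min and analysed by HPLC/MS/MS.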
A general note: Microsomes from liver hold many membrane-bound enzymes, among them those of drug oxidation.

The target in data set [4] is T1, hTRPV3. The experiment in a line: hTRPV3 HAMA IC50 assay (Hamamatsu FDSS6000 calcium flux, TRex-293 cells). A general note: Calcium flux is commonly read through the fluorescence of an indicator in the cells.
Description: IC50s were calculated using CBIS from ChemInnovation (San Diego).
The mark [5] stands for this setting: Phase 1 current, inward, whole-cell patch clamp, read-out: hTRPV3 Patch P1 Inwd.
Where [6] appears, read: Phase 1 current, read-out: hTRPV3 (nM) (Phase 1).
The mark [7] stands for this setting: hTRPV3 HAMA IC50 (nM) (5 min), 5 min.
The mark [8] stands for this setting: hTRPV3 HAMA IC50 (nM) (30 min), 30 min.
[9] abbreviates: Phase 2 current, inward, whole-cell patch clamp, read-out: hTRPV3 Patch P2 Inwd.
Where [10] appears, read: Phase 2 current, read-out: hTRPV3 (nM) (Phase 2).

T1 sequence (Q8NET8 whole entry): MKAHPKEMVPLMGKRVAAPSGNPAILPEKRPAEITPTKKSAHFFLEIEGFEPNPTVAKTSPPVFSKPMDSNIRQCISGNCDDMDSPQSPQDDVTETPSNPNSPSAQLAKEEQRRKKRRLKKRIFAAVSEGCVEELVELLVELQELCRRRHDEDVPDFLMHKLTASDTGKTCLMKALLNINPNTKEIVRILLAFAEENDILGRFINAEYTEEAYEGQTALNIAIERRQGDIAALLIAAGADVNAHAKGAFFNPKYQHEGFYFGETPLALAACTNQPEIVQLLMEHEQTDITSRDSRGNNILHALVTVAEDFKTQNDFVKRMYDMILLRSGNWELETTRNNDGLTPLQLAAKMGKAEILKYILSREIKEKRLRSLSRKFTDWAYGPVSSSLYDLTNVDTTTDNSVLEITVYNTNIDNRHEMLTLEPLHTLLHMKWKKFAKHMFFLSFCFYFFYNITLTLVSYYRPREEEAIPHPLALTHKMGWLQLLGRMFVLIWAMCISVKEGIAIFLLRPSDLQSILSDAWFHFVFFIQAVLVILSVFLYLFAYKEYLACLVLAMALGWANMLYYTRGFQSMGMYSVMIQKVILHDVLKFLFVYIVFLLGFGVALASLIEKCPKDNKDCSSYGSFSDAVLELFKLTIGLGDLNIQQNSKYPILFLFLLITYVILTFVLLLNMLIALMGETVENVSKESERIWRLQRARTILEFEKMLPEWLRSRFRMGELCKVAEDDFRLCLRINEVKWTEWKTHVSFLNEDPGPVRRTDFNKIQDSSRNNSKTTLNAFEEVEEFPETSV

In the case of `Cc1ccccc1Oc1ccc(N2CC[C@H](Oc3ncccc3Cl)C2)c(CCO)c1` [Compound 1-235, (S)-2-(2-(3-(3-chloropyridin-2-yloxy)pyrrolidin-1-yl)-5-(o-tolyloxy)phenyl)ethanol], the IC50 at hTRPV3 [1] (setting [5]) is 10 to 100 nM; at hTRPV3 [1] (setting [6]) it was 19.9 nM; at hTRPV3 [4] (setting [7]) it was more than 20000 nM; on hTRPV3 [4] (setting [8]) it was 6600 nM. Besides, in data set [2] (room temperature), the “Solubility Ringer (nM)” value was “BLQ”. In addition, the half-life at 1 μM in data set [3] is 21.9 min.
Take `CCc1ccccc1Oc1ccc(CO)c(N2CC[C@H](Oc3ncccc3Cl)C2)c1` [Compound 1-233, (S)-(2-(3-(3-chloropyridin-2-yloxy)pyrrolidin-1-yl)-4-(2-ethylphenoxy)phenyl)methanol]: the IC50 on hTRPV3 [1] (setting [5]) was 10 to 100 nM; on hTRPV3 [1] (setting [6]) it was approximately 21.6 nM; on hTRPV3 [4] (setting [8]) it was more than 20000 nM. In addition, in data set [2] (room temperature), the “Solubility Ringer (nM)” value is “BLQ”. For the same compound, the half-life at 1 μM in data set [3] was 10.4 min. For the same compound, the “hTRPV3 HAMA IC50 (nM) (5 min)” value on hTRPV3 [4] (5 min) is recorded as “no fit”.
As usually defined, the solubility is the concentration that dissolves in the medium under given conditions. The low end stands for little dissolved substance, the high end for much dissolved substance. In the case of `COc1ccccc1Oc1ccc(N2CC[C@H](Oc3ncccc3Cl)C2)c(CO)c1` [Compound 1-221, (S)-(2-(3-(3-chloropyridin-2-yloxy)pyrrolidin-1-yl)-5-(2-methoxyphenoxy)phenyl)methanol], the figures for the IC50 against hTRPV3 [1] (hTRPV3 Patch P1 Inwd (nM)), at hTRPV3 [1] (read-out: hTRPV3 (nM) (Phase 1)) and at hTRPV3 [4] (setting [8]) were 100 to 1000 nM, 159 nM and 19400 nM, respectively. For the same compound, the solubility at 40 min in data set [2] is approximately 2.9 µM (≈ 1.24 µg/mL). In addition, the half-life at 1 μM in data set [3] amounted to 12.9 min. In addition, the “hTRPV3 HAMA IC50 (nM) (5 min)” value on hTRPV3 [4] (5 min) is listed as “no fit”.
For the compound `OCc1cc(Oc2ccccc2Cl)ccc1N1CC[C@H](Oc2ncccc2Cl)C1` [Compound 1-223, (S)-(5-(2-chlorophenoxy)-2-(3-(3-chloropyridin-2-yloxy)pyrrolidin-1-yl)phenyl)methanol], the IC50 at hTRPV3 [1] (setting [5]) was 10 to 100 nM; at hTRPV3 [1] (setting [6]), 39.3 nM; at hTRPV3 [1] (setting [9]), 10 to 100 nM; on hTRPV3 [1] (setting [10]) it was 13.3 nM; on hTRPV3 [4] (setting [8]), 14600 nM. Further, the “Solubility Ringer (nM)” value in data set [2] (room temperature) is “BLQ”. Further, the half-life at 1 μM in data set [3] is 17.2 min. Also, the “hTRPV3 HAMA IC50 (nM) (5 min)” value on hTRPV3 [4] (5 min) is listed as “no fit”.
Turning to `Cc1ccccc1Oc1ccc(N2CC[C@H](Oc3ncccc3Cl)C2)c(CO)c1` [Compound 1-173, (S)-(2-(3-(3-chloropyridin-2-yloxy)pyrrolidin-1-yl)-5-(o-tolyloxy)phenyl)methanol], the IC50 at hTRPV3 [1] (setting [5]) was 10 to 100 nM; on hTRPV3 [1] (setting [6]), approximately 29 nM; on hTRPV3 [1] (setting [9]) it was 10 to 100 nM; on hTRPV3 [1] (setting [10]), 34.7 nM; at hTRPV3 [4] (setting [7]) it was > 20000 nM and 12000 nM; at hTRPV3 [4] (setting [8]) it was 1900 nM. Besides, the “Solubility Ringer (nM)” value in data set [2] (room temperature) is listed as “BLQ”. Besides, the half-life at 1 μM in data set [3] came out at 27.9 min.
Turning to `OCCCc1cc(-c2ccccc2)ccc1N1CC[C@H](Oc2ccc(C(F)(F)F)cn2)C1` [Compound 1-138, (S)-3-(4-(3-(5-(trifluoromethyl)pyridin-2-yloxy)pyrrolidin-1-yl)biphenyl-3-yl)propan-1-ol], the IC50 is 100 to 1000 nM at hTRPV3 [1] (setting [5]) and 275 nM at hTRPV3 [1] (setting [6]). The “Solubility Ringer (nM)” value in data set [2] (room temperature) is given as “BLQ”. Also, the half-life at 1 μM in data set [3] was 62.4 min. Moreover, the “hTRPV3 HAMA IC50 (nM) (5 min)” value at hTRPV3 [4] (5 min) was “no fit (5 min)”.
Take `OCc1ccc(Oc2ccccc2Cl)cc1N1CC[C@H](Oc2ncccc2Cl)C1` [Compound 1-232, (S)-(4-(2-chlorophenoxy)-2-(3-(3-chloropyridin-2-yloxy)pyrrolidin-1-yl)phenyl)methanol]: the IC50 on hTRPV3 [1] (setting [5]) is 10 to 100 nM; at hTRPV3 [1] (setting [6]), approximately 72.5 nM. This compound also gave a solubility at 40 min in data set [2] of 0.25 µM (≈ 0.108 µg/mL). Moreover, the half-life at 1 μM in data set [3] was found to be 5.87 min. At hTRPV3 [4] (5 min), the “hTRPV3 HAMA IC50 (nM) (5 min)” value is on record as “no fit (5 min) no fit (30 min)”. The “hTRPV3 HAMA IC50 (nM) (30 min)” value at hTRPV3 [4] (30 min) is “no fit (5 min) no fit (30 min)”.
Turning to `COc1ccccc1Oc1ccc(N2CC[C@H](Oc3ncccc3Cl)C2)c(CCO)c1` [Compound 1-237, (S)-2-(2-(3-(3-chloropyridin-2-yloxy)pyrrolidin-1-yl)-5-(2-methoxyphenoxy)phenyl)ethanol], the IC50 on hTRPV3 [1] (setting [5]) was 100 to 1000 nM; on hTRPV3 [1] (setting [6]), 251 nM; at hTRPV3 [4] (setting [7]), more than 20000 nM; at hTRPV3 [4] (setting [8]), 19800 nM. The compound further returned a solubility at 40 min in data set [2] of approximately 1.5 µM (≈ 0.661 µg/mL). The half-life at 1 μM in data set [3] was determined as 8.33 min.
Consider `OCc1cc(Oc2ccccc2)ccc1N1CC[C@H](Oc2ncccc2Cl)C1` [Compound 1-168, (S)-(2-(3-(3-chloropyridin-2-yloxy)pyrrolidin-1-yl)-5-phenoxyphenyl)methanol], for which the IC50 at hTRPV3 [1] (setting [5]) was 10 to 100 nM; on hTRPV3 [1] (setting [6]) it was 61.2 nM; at hTRPV3 [1] (setting [9]), 10 to 100 nM; on hTRPV3 [1] (setting [10]), 90.5 nM; on hTRPV3 [4] (setting [7]) it was more than 20000 nM. The solubility at 40 min in data set [2] was approximately 0.5 µM (≈ 0.198 µg/mL). Besides, in data set [3], the half-life at 1 μM was 26.7 min.
Consider `NC(=O)c1cc(Cl)ccc1N1CC[C@H](Oc2ccc(C(F)(F)F)cn2)C1` [Compound 1-31, (S)-5-chloro-2-(3-(5-(trifluoromethyl)pyridin-2-yloxy)pyrrolidin-1-yl)benzamide], for which the IC50 at hTRPV3 [1] (setting [5]) is 100 to 1000 nM; at hTRPV3 [1] (setting [6]) it was approximately 883 nM; at hTRPV3 [1] (setting [9]), 100 to 1000 nM; on hTRPV3 [1] (setting [10]), 546 nM. In data set [2], the solubility at 40 min is more than 16.8 µM. In data set [3], the half-life at 1 μM was found to be 34.3 min. For the same compound, the “hTRPV3 HAMA IC50 (nM) (5 min)” value on hTRPV3 [4] (5 min) was “no fit (5 min)”.
Take `CCc1ccccc1-c1ccc(CO)c(N2CC[C@H](Oc3ncccc3Cl)C2)c1` [Compound 1-229, (S)-(3-(3-(3-chloropyridin-2-yloxy)pyrrolidin-1-yl)-2′-ethylbiphenyl-4-yl)methanol]: the values for the IC50 on hTRPV3 [1] (setting [5]) and at hTRPV3 [1] (setting [6]) were 10 to 100 nM and 69.2 nM, respectively. Besides, in data set [2], the solubility at 40 min worked out at 0.16 µM (≈ 0.0654 µg/mL). In data set [3], the half-life at 1 μM came to 4.46 min. Also, the “hTRPV3 HAMA IC50 (nM) (5 min)” value on hTRPV3 [4] (5 min) was “no fit (5 min) no fit (30 min)”. Further, the “hTRPV3 HAMA IC50 (nM) (30 min)” value on hTRPV3 [4] (30 min) is given as “no fit (5 min) no fit (30 min)”.
As for `CC(O)c1cc(-c2ccccc2)ccc1N1CC[C@H](Oc2ccc(C(F)(F)F)cn2)C1` (stereo partly drawn) [Compound 1-121, 1-(4-((S)-3-(5-(trifluoromethyl)pyridin-2-yloxy)pyrrolidin-1-yl)biphenyl-3-yl)ethanol], the IC50 at hTRPV3 [1] (setting [5]) was 10 to 100 nM; on hTRPV3 [1] (setting [6]), 102 nM. In data set [2] (room temperature), the “Solubility Ringer (nM)” value is given as “BLQ”. Further, in data set [3], the half-life at 1 μM amounted to 33.3 min. The “hTRPV3 HAMA IC50 (nM) (5 min)” value on hTRPV3 [4] (5 min) is listed as “no fit (5 min)”.
`NC(=O)c1cc(C(O)c2ccccc2)ccc1N1CC[C@H](Oc2ccc(C(F)(F)F)cn2)C1` (stereo partly drawn) [Compound 1-146, 5-(hydroxy(phenyl)methyl)-2-((S)-3-(5-(trifluoromethyl)pyridin-2-yloxy)pyrrolidin-1-yl)benzamide]: the IC50 was 100 to 1000 nM at hTRPV3 [1] (setting [5]), 686 nM at hTRPV3 [1] (setting [6]) and 11800 nM at hTRPV3 [4] (setting [7]). The compound further had a solubility at 40 min in data set [2] of more than 13.3 µM. In data set [3], the half-life at 1 μM was determined as 45.8 min.
With `OCc1nc(Oc2ccccc2)ccc1N1CC[C@H](Oc2ccc(C(F)(F)F)cn2)C1` [Compound 1-139, (S)-(6-phenoxy-3-(3-(5-(trifluoromethyl)pyridin-2-yloxy)pyrrolidin-1-yl)pyridin-2-yl)methanol], the IC50 is 10 to 100 nM on hTRPV3 [1] (setting [5]); 23.6 nM at hTRPV3 [1] (setting [6]); 5750 nM at hTRPV3 [4] (read-out: hTRPV3 HAMA IC50 (nM) (5 min), 5 min). The “Solubility Ringer” value in data set [2] (room temperature) is approximately 0.3 µM (≈ 0.129 µg/mL). The “LM T1/2 (min) (rat)” value in data set [3] (1 μM) is listed as 30.7 (rat) min.
